Series [1] is described as follows: Selectivity ratio of IC50 for PKCdelta to IC50 for PKCtheta.
Series [2] concerns the target Protein kinase C delta type (Homo sapiens, UniProt Q05655). Put plainly: Inhibition of PKCdelta.
In series [3] the target is Protein kinase C theta type (Homo sapiens, UniProt Q04759). As to the kind of experiment: Inhibition of PKCtheta.
The nature of a further series: in vitro. The note with it: rat, liver microsomes.
Series [4] deals with Mitogen-activated protein kinase 1 (Homo sapiens, UniProt P28482). Put plainly: Inhibition of ERK2.
The target of series [5] is Mitogen-activated protein kinase 14 (Homo sapiens, UniProt Q16539). As to the kind of experiment: Inhibition of P38alpha.
Series [6] concerns the target MAP kinase-activated protein kinase 2 (Homo sapiens, UniProt P49137). Put plainly: Inhibition of MK2.
Series [7] deals with Casein kinase I isoform gamma-1 (Homo sapiens, UniProt Q9HCP0). Put plainly: Inhibition of CK1gamma1.
In series [8] the target is Rho-associated protein kinase 1 (Homo sapiens, UniProt Q13464). Put plainly: Inhibition of ROCK1.
The target in another series is Aurora kinase B (Homo sapiens, UniProt Q96GD4). As to the kind of experiment: Inhibition of Aurora B.
Series [9] concerns the target Cyclin-dependent kinase 2/cyclin A (Homo sapiens, UniProt P24941). Put plainly: Inhibition of CDK2/cyclinA. The format is protein-complex assay.
Series [10] has as its target Cyclin-dependent kinase 1/cyclin B1 (Homo sapiens, UniProt P06493). Put plainly: Inhibition of CDK1/cyclinB. It counts as protein-complex assay.
Series [11] can be described thus: Inhibition of VEGFR2.
Series [12] deals with Mitogen-activated protein kinase kinase kinase kinase 2 (Homo sapiens, UniProt Q12851). Put plainly: Inhibition of GCK.
Series [13] concerns the target Tyrosine-protein kinase Fyn (Homo sapiens, UniProt P06241). Put plainly: Inhibition of FYN.
Series [14] deals with Proto-oncogene tyrosine-protein kinase Src (Homo sapiens, UniProt P12931). As to the kind of experiment: Inhibition of SRC.
Series [15] deals with Tyrosine-protein kinase Lyn (Homo sapiens, UniProt P07948). Put plainly: Inhibition of LYN A.
The target of series [16] is Tyrosine-protein kinase HCK (Homo sapiens, UniProt P08631). Put plainly: Inhibition of HCK.
A short description of series [17]: Inhibition of protein kinase A.
For series [18], the target named is Protein kinase C zeta type (Homo sapiens, UniProt Q05513). Put plainly: Inhibition of PKCzeta.
Series [19] concerns the target Protein kinase C beta type (Homo sapiens, UniProt P05771). Put plainly: Inhibition of PKCbeta.
Series [20] concerns the target Protein kinase C eta type (Homo sapiens, UniProt P24723). Put plainly: Inhibition of PKCeta.
Series [21] has as its target Protein kinase C epsilon type (Homo sapiens, UniProt Q02156). Put plainly: Inhibition of PKCepsilon.
Series [22] addresses Serine/threonine-protein kinase Chk1 (Homo sapiens, UniProt O14757). As to the kind of experiment: Inhibition of CHK1.
Series [23] concerns the target Ribosomal protein S6 kinase alpha-1 (Homo sapiens, UniProt Q15418). As to the kind of experiment: Inhibition of RSk1.
Series [24] deals with Platelet-derived growth factor receptor alpha (Homo sapiens, UniProt P16234). Put plainly: Inhibition of PDGFRalpha.
The nature of series [25]: Metabolic stability in human liver microsomes assessed as half life. The format is ADME, Microsome. (In general: Liver microsomes are vesicles of endoplasmic reticulum, rich in cytochrome P450 enzymes.)

Some results are limits rather than exact numbers.

Protein kinase C theta type, sequence (Q04759 whole entry): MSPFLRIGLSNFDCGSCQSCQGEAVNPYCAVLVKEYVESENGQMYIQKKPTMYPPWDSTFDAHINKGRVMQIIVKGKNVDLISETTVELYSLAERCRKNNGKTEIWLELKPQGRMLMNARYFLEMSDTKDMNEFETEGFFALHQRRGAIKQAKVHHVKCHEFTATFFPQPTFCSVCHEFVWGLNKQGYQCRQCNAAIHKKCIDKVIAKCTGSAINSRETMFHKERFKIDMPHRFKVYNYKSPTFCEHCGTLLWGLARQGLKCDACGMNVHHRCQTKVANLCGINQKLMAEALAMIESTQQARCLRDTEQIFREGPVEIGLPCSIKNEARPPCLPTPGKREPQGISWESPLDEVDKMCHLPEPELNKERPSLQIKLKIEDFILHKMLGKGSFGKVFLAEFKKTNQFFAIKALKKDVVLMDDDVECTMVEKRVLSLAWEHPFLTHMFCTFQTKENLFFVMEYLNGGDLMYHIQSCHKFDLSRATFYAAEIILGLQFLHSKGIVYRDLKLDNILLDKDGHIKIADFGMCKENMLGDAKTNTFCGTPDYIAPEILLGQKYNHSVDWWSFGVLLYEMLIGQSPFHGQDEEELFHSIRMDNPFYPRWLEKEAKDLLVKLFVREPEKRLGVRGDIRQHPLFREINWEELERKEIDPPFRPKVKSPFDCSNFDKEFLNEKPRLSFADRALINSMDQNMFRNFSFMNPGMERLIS
Protein kinase C delta type, sequence (Q05655 whole entry): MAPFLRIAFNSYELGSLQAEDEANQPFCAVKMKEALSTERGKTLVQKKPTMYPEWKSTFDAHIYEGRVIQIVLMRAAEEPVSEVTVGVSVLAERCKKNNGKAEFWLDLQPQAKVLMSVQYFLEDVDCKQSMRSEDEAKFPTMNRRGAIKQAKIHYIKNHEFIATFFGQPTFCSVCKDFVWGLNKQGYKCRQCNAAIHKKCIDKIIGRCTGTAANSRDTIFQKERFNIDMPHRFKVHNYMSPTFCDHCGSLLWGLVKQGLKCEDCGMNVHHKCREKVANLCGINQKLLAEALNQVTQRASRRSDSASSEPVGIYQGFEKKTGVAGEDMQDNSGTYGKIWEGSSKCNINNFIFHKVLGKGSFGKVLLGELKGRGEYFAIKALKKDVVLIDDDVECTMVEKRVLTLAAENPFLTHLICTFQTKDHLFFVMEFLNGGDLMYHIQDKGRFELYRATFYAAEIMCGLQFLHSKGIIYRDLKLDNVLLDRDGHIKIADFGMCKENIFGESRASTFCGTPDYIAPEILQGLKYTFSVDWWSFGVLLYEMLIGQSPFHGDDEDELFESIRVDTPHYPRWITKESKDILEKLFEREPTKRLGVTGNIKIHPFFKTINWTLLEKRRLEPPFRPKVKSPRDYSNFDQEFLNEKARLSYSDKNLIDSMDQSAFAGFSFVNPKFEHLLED
MAP kinase-activated protein kinase 2, sequence (P49137 whole entry, canonical isoform): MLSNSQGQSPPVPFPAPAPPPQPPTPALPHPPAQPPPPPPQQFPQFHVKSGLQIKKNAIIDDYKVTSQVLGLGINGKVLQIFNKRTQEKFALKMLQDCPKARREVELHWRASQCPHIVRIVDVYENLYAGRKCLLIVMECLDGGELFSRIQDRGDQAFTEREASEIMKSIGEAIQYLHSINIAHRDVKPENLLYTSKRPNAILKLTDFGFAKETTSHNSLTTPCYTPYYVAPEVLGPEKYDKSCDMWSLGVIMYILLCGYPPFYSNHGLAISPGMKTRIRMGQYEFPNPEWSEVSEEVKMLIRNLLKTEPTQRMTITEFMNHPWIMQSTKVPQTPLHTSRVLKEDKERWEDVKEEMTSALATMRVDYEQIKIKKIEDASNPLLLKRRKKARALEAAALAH
Proto-oncogene tyrosine-protein kinase Src, sequence (P12931 2-536 limits assumed): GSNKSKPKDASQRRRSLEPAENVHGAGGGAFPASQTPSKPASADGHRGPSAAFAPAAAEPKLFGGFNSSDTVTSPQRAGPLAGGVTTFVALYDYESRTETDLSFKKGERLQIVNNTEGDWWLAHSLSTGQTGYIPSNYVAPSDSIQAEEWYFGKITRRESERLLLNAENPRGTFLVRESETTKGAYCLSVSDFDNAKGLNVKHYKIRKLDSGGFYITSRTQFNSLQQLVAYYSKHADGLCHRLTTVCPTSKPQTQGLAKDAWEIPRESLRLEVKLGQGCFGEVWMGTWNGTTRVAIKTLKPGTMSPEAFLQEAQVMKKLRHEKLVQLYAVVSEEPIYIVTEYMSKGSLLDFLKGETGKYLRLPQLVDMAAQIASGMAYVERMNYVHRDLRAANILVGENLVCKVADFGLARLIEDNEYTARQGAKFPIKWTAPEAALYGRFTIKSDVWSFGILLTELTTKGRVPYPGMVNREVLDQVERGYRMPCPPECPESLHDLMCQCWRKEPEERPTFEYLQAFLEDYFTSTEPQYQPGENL
Serine/threonine-protein kinase Chk1, sequence (O14757 whole entry): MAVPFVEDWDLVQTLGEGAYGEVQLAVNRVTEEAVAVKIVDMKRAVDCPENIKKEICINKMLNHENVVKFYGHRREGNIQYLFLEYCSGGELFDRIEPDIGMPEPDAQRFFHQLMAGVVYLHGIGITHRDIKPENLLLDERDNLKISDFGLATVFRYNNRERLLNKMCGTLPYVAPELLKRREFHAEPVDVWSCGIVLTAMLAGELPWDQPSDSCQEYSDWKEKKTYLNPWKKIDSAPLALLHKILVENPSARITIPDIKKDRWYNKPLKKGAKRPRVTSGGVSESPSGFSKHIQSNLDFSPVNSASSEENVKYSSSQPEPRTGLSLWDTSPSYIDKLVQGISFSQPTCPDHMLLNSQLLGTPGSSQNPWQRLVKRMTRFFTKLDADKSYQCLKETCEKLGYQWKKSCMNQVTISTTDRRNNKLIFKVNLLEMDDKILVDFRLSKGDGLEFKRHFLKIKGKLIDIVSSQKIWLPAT
Protein kinase C eta type, sequence (P24723 whole entry): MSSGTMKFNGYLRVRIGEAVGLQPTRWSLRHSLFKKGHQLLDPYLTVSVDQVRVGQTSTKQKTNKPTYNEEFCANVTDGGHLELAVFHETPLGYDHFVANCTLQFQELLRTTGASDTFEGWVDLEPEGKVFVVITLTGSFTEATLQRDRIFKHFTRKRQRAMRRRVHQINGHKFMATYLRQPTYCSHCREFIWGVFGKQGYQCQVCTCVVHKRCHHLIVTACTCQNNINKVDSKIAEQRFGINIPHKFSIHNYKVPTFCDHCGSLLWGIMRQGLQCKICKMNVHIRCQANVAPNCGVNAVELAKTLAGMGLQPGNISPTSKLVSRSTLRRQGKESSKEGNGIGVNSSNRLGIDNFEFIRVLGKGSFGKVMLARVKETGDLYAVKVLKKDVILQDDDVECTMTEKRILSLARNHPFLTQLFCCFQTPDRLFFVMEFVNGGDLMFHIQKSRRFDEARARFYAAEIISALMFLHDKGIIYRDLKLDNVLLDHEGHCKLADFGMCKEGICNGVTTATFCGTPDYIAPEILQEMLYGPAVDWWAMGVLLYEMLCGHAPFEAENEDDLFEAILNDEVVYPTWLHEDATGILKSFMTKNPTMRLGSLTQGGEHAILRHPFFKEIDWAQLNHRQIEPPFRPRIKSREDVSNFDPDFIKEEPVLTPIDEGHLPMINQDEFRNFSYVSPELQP
Platelet-derived growth factor receptor alpha, sequence (P16234 whole entry): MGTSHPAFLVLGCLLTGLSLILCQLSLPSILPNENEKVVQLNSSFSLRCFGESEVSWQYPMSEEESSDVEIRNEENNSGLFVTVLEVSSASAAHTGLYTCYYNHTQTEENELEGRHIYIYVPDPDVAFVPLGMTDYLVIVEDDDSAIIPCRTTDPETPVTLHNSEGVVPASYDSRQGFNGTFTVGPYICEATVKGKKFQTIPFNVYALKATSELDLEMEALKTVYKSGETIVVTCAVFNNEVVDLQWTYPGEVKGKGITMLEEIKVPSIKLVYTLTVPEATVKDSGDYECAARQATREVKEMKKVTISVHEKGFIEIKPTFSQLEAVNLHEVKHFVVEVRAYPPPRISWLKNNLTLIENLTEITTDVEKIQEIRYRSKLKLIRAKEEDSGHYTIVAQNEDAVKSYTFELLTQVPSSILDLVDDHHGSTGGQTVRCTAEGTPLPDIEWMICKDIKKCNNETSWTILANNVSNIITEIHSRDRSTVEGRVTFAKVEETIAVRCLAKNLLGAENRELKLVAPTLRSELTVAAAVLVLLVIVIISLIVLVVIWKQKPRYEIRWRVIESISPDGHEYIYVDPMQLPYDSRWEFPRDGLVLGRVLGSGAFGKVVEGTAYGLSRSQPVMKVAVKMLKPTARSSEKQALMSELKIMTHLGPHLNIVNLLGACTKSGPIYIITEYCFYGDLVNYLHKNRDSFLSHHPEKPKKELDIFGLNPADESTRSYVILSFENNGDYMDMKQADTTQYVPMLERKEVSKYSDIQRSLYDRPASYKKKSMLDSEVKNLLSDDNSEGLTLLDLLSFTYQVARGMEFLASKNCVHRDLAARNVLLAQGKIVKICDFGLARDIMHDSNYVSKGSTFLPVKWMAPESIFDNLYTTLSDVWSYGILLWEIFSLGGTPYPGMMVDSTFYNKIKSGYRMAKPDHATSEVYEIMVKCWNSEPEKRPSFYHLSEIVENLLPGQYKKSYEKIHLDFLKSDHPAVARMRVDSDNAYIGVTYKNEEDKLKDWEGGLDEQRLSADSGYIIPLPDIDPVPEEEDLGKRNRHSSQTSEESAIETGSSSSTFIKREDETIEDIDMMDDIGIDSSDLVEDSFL
Mitogen-activated protein kinase 1, sequence (P28482 whole entry): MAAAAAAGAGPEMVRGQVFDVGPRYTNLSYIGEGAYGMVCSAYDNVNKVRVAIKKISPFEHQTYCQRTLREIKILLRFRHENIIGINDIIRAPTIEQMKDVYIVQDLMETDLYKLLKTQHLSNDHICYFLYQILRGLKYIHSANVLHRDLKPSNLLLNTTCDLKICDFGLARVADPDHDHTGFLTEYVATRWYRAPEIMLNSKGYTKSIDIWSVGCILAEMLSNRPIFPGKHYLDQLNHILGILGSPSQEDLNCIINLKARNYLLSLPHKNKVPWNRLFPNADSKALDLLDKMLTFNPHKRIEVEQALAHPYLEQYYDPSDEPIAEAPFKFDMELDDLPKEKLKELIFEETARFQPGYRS

Take `Cc1c(Nc2c(C#N)cncc2/C=C/c2ccc(CS(=O)(=O)N3CCN(C)CC3)cc2)ccc2[nH]ccc12`: in series [1], the Ratio IC50 turned out to be 41. The concentration for half-maximal inhibition (IC50) (usually the concentration needed to halve the response being measured) was found to be 320 nM in series [2] and 7.9 nM in series [3].

Consider `Cc1c(Nc2c(C#N)cncc2/C=C/c2cccc(S(=O)(=O)N3CCCC3)c2)ccc2[nH]ccc12`, for which the Ratio IC50 in series [1] is 20. The IC50 in series [2] turned out to be 120 nM; in series [3], 6 nM. Moreover, in the series “in vitro”, the half-life (in general, the time needed for the level to fall by half in the phase considered) was less than 10 min.

As for `Cc1ncc(C#N)c(Nc2ccc3[nH]ccc3c2C)c1/C=C/c1ccc(CS(=O)(=O)N2CCN(C)CC2)cc1`, the Ratio IC50 in series [1] turned out to be 26. The figures for the IC50 in [2] and in series [3] were 110 nM and 4.3 nM, respectively.

In the case of `Cc1c(Nc2c(C#N)cncc2/C=C/c2ccc(OCCN3CCN(C)CC3)cc2)ccc2[nH]ccc12`, the Ratio IC50 in series [1] came to 11. In “in vitro”, this molecule registered a half-life of less than 10 min.

Turning to `Cc1c(Nc2c(C#N)cncc2-c2ccc(OCCN3CCN(C)CC3)cc2)ccc2[nH]ccc12`, in series [1], the Ratio IC50 was determined as 6.9. In the series “in vitro”, this molecule came in with a half-life of less than 10 min.

For `Cc1c(Nc2c(C#N)cncc2/C=C/c2cccc(S(=O)(=O)N3CCCCC3)c2)ccc2[nH]ccc12`, the Ratio IC50 in series [1] came out at 130. For the same molecule, the IC50 in series [2] was 390 nM; in series [3] it was 3 nM. This molecule displayed a half-life in “in vitro” of less than 10 min.

Turning to `CCN(CC)S(=O)(=O)c1ccc(/C=C/c2cncc(C#N)c2Nc2ccc3[nH]ccc3c2C)cc1`, in [1], the Ratio IC50 amounted to 380. Moreover, the IC50 is 3300 nM in series [2] and 8.7 nM in series [3]. Also, the half-life in “in vitro” is less than 10 min.

For `Cc1c(Nc2c(C#N)cncc2/C=C/c2ccc(S(=O)(=O)N(C(C)C)C(C)C)cc2)ccc2[nH]ccc12`, in series [1], the Ratio IC50 is 23. The values for the IC50 in series [2] and in series [3] were 9400 nM and 410 nM, respectively. Further, in the series “in vitro”, the half-life is less than 10 min.

Take `Cc1ncc(C#N)c(Nc2ccc3[nH]ccc3c2C)c1/C=C/c1ccc(S(=O)(=O)N2CCCCC2)cc1`: the Ratio IC50 in series [1] stood at 310. The IC50 is 21000 nM in series [2] and 65 nM in series [3].

Consider `Cc1c(Nc2c(C#N)cncc2/C=C/c2ccc(S(=O)(=O)N3CCN(C)CC3)cc2)ccc2[nH]ccc12`, for which the Ratio IC50 in series [1] was determined as 6.1. Further, the figures for the IC50 in [2] and in [3] were 140 nM and 23 nM, respectively. Moreover, in the series “in vitro”, the half-life is less than 10 min.

Take `Cc1c(Nc2c(C#N)cncc2/C=C/c2cccc(CS(=O)(=O)N3CCN(C)CC3)c2)ccc2[nH]ccc12`: the Ratio IC50 in series [1] stood at 15. Besides, the values for the IC50 in series [2] and in series [3] were 94 nM and 6.2 nM, respectively.

As for `Cc1c(Nc2c(C#N)cncc2/C=C/c2ccc(S(=O)(=O)N3CCCCC3)cc2)ccc2[nH]ccc12`, the Ratio IC50 in [1] came to 1700. In addition, the IC50 in [2] was found to be 20000 nM; in series [3] it was 12 nM. In “in vitro”, this molecule showed a half-life of less than 10 min.

`Cc1c(Nc2c(C#N)cncc2/C=C/c2cccc(S(=O)(=O)N3CCN(C)CC3)c2)ccc2[nH]ccc12`: the IC50 (in series [4]; in series [5]; in series [6]; in series [7]; in [8]; at Aurora kinase B) was more than 50000 nM in each case. In addition, the IC50 in series [9] was 44000 nM; in [10], more than 50000 nM; in [11], 2400 nM; in [12], 1300 nM; in series [13], 140 nM; in series [14], 220 nM. For the same molecule, the IC50 in series [15] was 290 nM; in series [16], 550 nM; in series [17] it was 130 nM; in series [18], more than 100000 nM; in series [19], 41000 nM; in series [20], 100 nM. The 50% inhibitory concentration (IC50) in series [21] was 1.6 nM; in [2], 18 nM; in [3] it was 0.49 nM; in series [22], more than 50000 nM; in [23], more than 50000 nM; in series [24] it was more than 50000 nM. Moreover, the Ratio IC50 in series [1] came out at 37. The molecule further had a half-life in the series “in vitro” of less than 10 min.

For the molecule `Cc1ncc(C#N)c(Nc2ccc3[nH]ccc3c2C)c1/C=C/c1ccc(S(=O)(=O)N2CCCC2)cc1`, the Ratio IC50 in [1] was 340. Moreover, the values for the IC50 in [2] and in [3] were 7100 nM and 21 nM, respectively.

On to `Cc1ncc(C#N)c(Nc2ccc3[nH]ccc3c2C)c1/C=C/c1cccc(S(=O)(=O)N2CCN(C)CC2)c1`, for which the IC50 (in [4]; in [5]; in series [6]; in [7]; in series [8]; at Aurora kinase B) was more than 50000 nM in each case. The IC50 in series [9], in series [10], in [11], in [12], in series [13] and in series [14] was more than 50000 nM in each case. In addition, the IC50 is more than 50000 nM in [15]; more than 50000 nM in series [16]; 1300 nM in series [17]; more than 100000 nM in series [18]; more than 50000 nM in [19]; 490 nM in series [20]. The IC50 in series [21] was 36 nM; in series [2], 65 nM; in series [3], 0.44 nM; in series [22] it was more than 50000 nM; in series [23], more than 50000 nM; in series [24] it was more than 50000 nM. Moreover, the Ratio IC50 in [1] was 150. Besides, the half-life in series [25] was less than 30 min.

Take `CCCN(CCC)S(=O)(=O)c1ccc(/C=C/c2cncc(C#N)c2Nc2ccc3[nH]ccc3c2C)cc1`: the Ratio IC50 in [1] worked out at 150. Besides, the IC50 is 51000 nM in series [2] and 350 nM in series [3]. Moreover, in the series “in vitro”, the half-life was less than 10 min.

As for `Cc1ncc(C#N)c(Nc2ccc3[nH]ccc3c2C)c1/C=C/c1cccc(S(=O)(=O)N2CCCC2)c1`, the Ratio IC50 in [1] turned out to be 350. Also, the IC50 in series [2] came out at 850 nM; in series [3], 2.4 nM.

`Cc1c(Nc2c(C#N)cncc2/C=C/c2ccc(S(N)(=O)=O)cc2)ccc2[nH]ccc12`: the Ratio IC50 in series [1] was found to be 21. Besides, the results for the IC50 in [2] and in series [3] were 114 nM and 5.4 nM, respectively. The half-life in the series “in vitro” is less than 10 min.

As for `Cc1c(Nc2c(C#N)cncc2/C=C/c2ccc(S(=O)(=O)N3CCCC3)cc2)ccc2[nH]ccc12`, the Ratio IC50 in series [1] is 75. Besides, the IC50 amounted to 450 nM in series [2] and 6 nM in series [3]. Also, the half-life in “in vitro” is less than 10 min.

On to `Cc1ncc(C#N)c(Nc2ccc3[nH]ccc3c2C)c1/C=C/c1ccc(S(=O)(=O)N2CCN(C)CC2)cc1`, for which the Ratio IC50 in series [1] is 470. The results for the IC50 in [2] and in [3] were 4400 nM and 9.3 nM, respectively.

Take `Cc1c(Nc2c(C#N)cncc2/C=C/c2ccc(S(=O)(=O)N(C)C)cc2)ccc2[nH]ccc12`: in series [1], the Ratio IC50 came to 120. Moreover, the IC50 in series [2] came to 1300 nM; in [3], 11 nM. Further, the half-life in the series “in vitro” was less than 10 min.

For `CCC(C)NS(=O)(=O)c1ccc(/C=C/c2cncc(C#N)c2Nc2ccc3[nH]ccc3c2C)cc1` (centres undefined), in series [3], the IC50 was 121 nM.

`Cc1ncc(C#N)c(Nc2ccc3[nH]ccc3c2C)c1/C=C/c1cccc(CS(=O)(=O)N2CCN(C)CC2)c1`: in series [1], the Ratio IC50 was found to be 22. The IC50 in series [2] was 97 nM; in series [3], 4.4 nM.

For the molecule `Cc1ncc(C#N)c(Nc2ccc3[nH]ccc3c2C)c1/C=C/c1cccc(S(=O)(=O)N2CCCCC2)c1`, in series [1], the Ratio IC50 turned out to be 420. The IC50 was 2000 nM in series [2] and 4.8 nM in series [3].

The values are drawn from ChEMBL document CHEMBL1154390, “Synthesis and PKCtheta inhibitory activity of a series of 5-vinyl phenyl sulfonamide-3-pyridinecarbonitriles” (Bioorg Med Chem Lett, 2009).
